What was measured:
[1] = Inhibition of FGFR3 in human RT112 cells assessed as suppression of cell proliferation after 72 hrs by SRB/CCK-8 assay
[2] = Inhibition of FGFR1 in human KG1 cells assessed as suppression of cell proliferation after 72 hrs by SRB/CCK-8 assay
[3] = Inhibition of FGFR1 in human H1581 cells assessed as suppression of cell proliferation after 72 hrs by SRB/CCK-8 assay

## COc1cc(CCc2cc(Nc3ncnc4cc(N5CCN6CCCCC6C5)ccc34)n[nH]2)cc(OC)c1 (stereo not drawn)
[1]
  IC50: < 0.2 nM
[2]
  IC50: < 0.2 nM
[3]
  IC50: < 0.5 nM

From BindingDB's records for doi:10.1016/j.bmcl.2016.04.028 (Chinese Academy of Sciences (Cas), 2016)
